Experimental findings from US20260283996A1, “DECANOIC ACID AND ITS COMPOSITIONS FOR USE IN THE PREVENTION AND/OR TREATMENT OF PEROXISOMAL DISORDERS” (SOCIÉTÉ DES PRODUITS NESTLÉ S.A., priority 2023, published 2026) are described below.

Holding throughout (type): cell-based
Experiment [1] concerns acyl CoA oxidase. Briefly: acyl CoA oxidase activity in SH-SY5Y cells. The settings on record: 250 μM, 6 days (FIG. 1A). The procedure: (§1) SH-SY5Y cells were stored frozen and cells with passage numbers between 20 and 24 were utilized. When required, SH-SY5Y cells were thawed at 20-25° C. and quickly seeded at a density of 13.3×10^3 cell/cm^2 in 75 cm^2 flasks. SH-SY5Y cells were then grown in media containing 1:1 DMEM/F-12+100 mL/L FBS+10 mL/L I-glutamine at +37° C. and 5% CO2. SH-SY5Y cells were exposed to 250 μM decanoic acid (C10) or octanoic acid (C8) for 6 days.
(§2) To assess effects upon peroxisomal content and function, the following parameters were studied; (a) activity of the peroxisomal marker enzyme, acyl CoA oxidase, (b) expression of Pex11a, a gene associated with peroxisomal biogenesis and (c) evaluation of peroxisomal fatty acid beta oxidation by monitoring the chain shortening of a very long chain fatty acid, C22, to C18, C16 and C14.

Experiment [2] relates to Pex11a. Description: expression of Pex11a in SH-SY5Y cells. The settings on record: 250 μM, 6 days (FIG. 1B). The procedure:
as §1, §2

Experiment [3] concerns SH-SY5Y cells. Briefly: peroxisomal fatty acid beta oxidation (chain shortening of C22 to C18, C16 and C14) in SH-SY5Y cells. To be noted: 250 μM, 6 days, chain shortening of C22 to C18, C16 and C14 (FIG. 1C). As to the method: as §1, §2

Regarding `CCCCCCCCCC(=O)O` [C10, Decanoic acid], the “acyl CoA oxidase activity” value in experiment [1] is “increase in acyl CoA oxidase activity”. Besides, the Pex11a expression result in experiment [2] is recorded as “increased Pex11a”. In experiment [3], the “capacity to perform peroxisomal beta oxidation” value is listed as “increased capacity to perform peroxisomal beta oxidation”.
